# Assay results from article PMC12040169 (PLOS Biology, 2025).
# Assay: in vitro
# Details: human, hela cells, % viability
row,SMILES,"viability at 28.5 h, 10 µM"
1,Cc1cccc(-c2ncc(NC(=O)CCOc3ccccc3)nc2-c2ccc(N)cc2)c1 [CBK036655],113%
2,O=C(NCC(O)c1ccc(O)cc1)c1cnc(-c2ccc(Cl)cc2)c(-c2cccnc2)c1 (stereo not drawn) [CBK036656],92.5%
3,COC(=O)c1cscc1NC(=O)c1cnc(-c2ccc(Cl)cc2)c(-c2ccco2)c1 [CBK036657],104%
4,COc1ccc(-c2nc(NC(=O)c3ccncc3)cnc2-c2ccc(F)c(Cl)c2)cc1 [CBK036663],88.6%
5,O=C(NCCCN1CCOCC1)c1cnc(-c2ccccc2)c(-c2ccncc2)c1 [CBK036664],106%
6,O=C(NCc1cccc(C(F)(F)F)c1)c1cnc(-c2ccccc2)c(-c2ccco2)c1 [CBK036667],103%
7,CCc1cccc(NC(=O)c2cnc(-c3ccc(Cl)cc3)c(-c3ccc(OC)nc3)c2)n1 [CBK036671],93.7%
8,COc1ccc(C(C)C)cc1-c1nccnc1NCc1ccco1 [CBK036672],98%
9,COc1ccc(C(C)C)cc1-c1nccnc1N1CCCN(C)CC1 [CBK036677],110%
10,Cc1cccc(-c2ncc(C(=O)NCCc3c[nH]cn3)cc2-c2ccncc2)c1 [CBK036678],86.9%
11,COc1ncc(-c2nccnc2NCc2cccc([N+](=O)[O-])c2)c(OC)n1 [CBK036680],97.7%
12,COc1ccc(-c2cc(C(=O)Nc3nc4c(OC)cccc4s3)cnc2-c2ccccc2)cn1 [CBK036681],105%
13,COc1ccc(C(C)C)cc1-c1nccnc1NCc1ccc2c(c1)OCO2 [CBK036683],81%
14,Cc1cccc(-c2ncc(NC(=O)CCc3cccnc3)nc2-c2ccc(N)cc2)c1 [CBK036684],86.9%
15,Nc1ccc(CCNC(=O)c2cnc(-c3ccc(Cl)cc3)c(-c3ccco3)c2)cc1 [CBK036686],99.7%
16,COc1ccc(-c2nc(NC(=O)C3CC(=O)N(C)C3c3cccnc3)cnc2-c2cccc(C)c2)cc1 (stereo not drawn) [CBK036692],101%
17,Cc1cccc(-c2ncc(NC(=O)c3ccccn3)nc2-c2ccc(N)cc2)c1 [CBK036694],93.3%
18,NC(=O)c1ccc(-c2nccnc2NCc2ccc3c(c2)OCO3)cc1 [CBK036696],91.3%
19,COc1ccc(-c2cc(C(=O)NCC3CCNCC3)cnc2-c2ccc(Cl)cc2)cn1 [CBK036700],105%
20,COc1ncc(-c2nc(NC(=O)Cc3cc(F)c(F)c(F)c3)cnc2-c2cccc(C)c2)c(OC)n1 [CBK036717],96.4%

row,SMILES,"viability at 28.5 h, 10 µM"
1,COC1CCC(C(=O)Nc2cnc(-c3ccc(F)c(Cl)c3)c(-c3ccc(C(C)=O)s3)n2)CC1 (stereo not drawn) [CBK036718],99.3%
2,COC(=O)C(NC(=O)c1cnc(-c2ccc(Cl)cc2)c(-c2ccc(O)cc2)c1)c1ccccc1 (stereo not drawn) [CBK036723],90.6%
3,NC(=O)c1cccc(-c2nccnc2N2CCN(CCO)CC2)c1 [CBK036726],96.9%
4,COc1ccccc1-c1nccnc1N1CCCC1CO (stereo not drawn) [CBK036735],102%
5,C=CCNC(=O)c1cnc(-c2ccc(Cl)cc2)c(-c2ccco2)c1 [CBK036738],90.6%
6,COCCNc1nccnc1-c1cccs1 [CBK036739],100%
7,CN(C)c1cccc(C(=O)Nc2cnc(-c3cccc(C(F)(F)F)c3)c(-c3cccnc3)n2)c1 [CBK036752],90.4%
8,C[C@@H](Nc1nccnc1-c1cccnc1)c1ccccc1 [CBK036759],109%
9,COC(=O)c1cscc1NC(=O)c1cnc(-c2cccc(C)c2)c(-c2ccc(C(C)=O)s2)c1 [CBK036760],85.4%
10,CC(=O)c1ccc(-c2cc(C(=O)NC3CCc4ccccc43)cnc2-c2ccc(Cl)cc2)s1 (stereo not drawn) [CBK036762],96.9%
11,c1csc(-c2nccnc2NCCc2ccncc2)c1 [CBK036764],108%
12,O=C(NCCn1cc[nH]c1=O)c1cnc(-c2ccc(Cl)cc2)c(-c2ccc(O)cc2)c1 [CBK036766],92%
13,Fc1cccc(-c2nccnc2NCC2CC2)c1 [CBK036767],94.4%
14,Cc1cccc(-c2ncc(C(=O)NCc3csc4ccc(Cl)cc34)cc2-c2ccncc2)c1 [CBK036770],89.6%
15,COc1ccccc1-c1nccnc1N(C)Cc1ccccc1 [CBK036774],102%
16,c1ccc(CCNc2nccnc2-c2cccs2)nc1 [CBK036776],97.7%
17,CS(=O)(=O)c1cccc(C(=O)Nc2cnc(-c3ccc(F)c(Cl)c3)c(-c3cccnc3)n2)c1 [CBK036779],101%
18,Cc1noc(C)c1C(=O)Nc1cnc(-c2ccc(F)cc2)c(-c2ccsc2)n1 [CBK036781],97.6%
19,CCOc1ccccc1C(=O)Nc1cnc(-c2cccc(C)c2)c(-c2ccc(N)cc2)n1 [CBK036783],107%
20,COc1cccc(CNc2nccnc2-c2cccs2)c1OC [CBK036784],95.7%

row,SMILES,"viability at 28.5 h, 10 µM"
1,COc1ccc(-c2nc(NC(=O)c3ccccn3)cnc2-c2cccc(C(F)(F)F)c2)cc1 [CBK036785],110%
2,CN1CCCC(C(=O)Nc2cnc(-c3cccc(C(F)(F)F)c3)c(-c3cccnc3)n2)C1 (stereo not drawn) [CBK036787],87.2%
3,COc1ccccc1-c1nccnc1NCc1ccc(C(F)(F)F)cc1 [CBK036788],109%
4,c1ccc(CCNc2nccnc2-c2ccoc2)nc1 [CBK036790],86.1%
5,O=C(Nc1cnc(-c2ccc(F)c(Cl)c2)c(-c2cccnc2)n1)c1ccc(N2CCCC2=O)cc1 [CBK036794],107%
6,Cc1cccc(CNc2nccnc2-c2cccs2)c1 [CBK036808],104%
7,CC(=O)NCC(=O)Nc1cnc(-c2cccc(C(F)(F)F)c2)c(-c2cccnc2)n1 [CBK036809],103%
8,O=C(c1ccc(-c2nccnc2N2CCN(CCO)CC2)cc1)N1CCOCC1 [CBK036812],92.1%
9,COc1ccc(-c2nc(NC(=O)C3CCC(OC)CC3)cnc2-c2cccc(C)c2)cn1 (stereo not drawn) [CBK036813],109%
10,COc1ccc(NC(=O)c2ccc(-c3ccc(Nc4ccc5c(c4)OCCO5)nc3)cc2)cc1 [CBK036815],88.7%
11,CC(=O)c1ccc(-c2nc(NC(=O)c3cccc([N+](=O)[O-])c3)cnc2-c2ccc(F)c(Cl)c2)s1 [CBK036816],97.2%
12,COc1ncc(-c2nccnc2NCc2cccnc2)c(OC)n1 [CBK036817],101%
13,COc1ccc(Nc2cccc(-c3cnc(OC)nc3OC)n2)cc1 [CBK036825],89.6%
14,CCCCCOc1ccc(Nc2ccc(-c3cc4ccccc4o3)cn2)cc1 [CBK036828],93.6%
15,CC(=O)Nc1cccc(-c2ccc(Nc3cccc(N(C)C)c3)nc2)c1 [CBK036829],97.9%
16,COc1cccc(CCC(=O)Nc2cnc(-c3cccc(C(F)(F)F)c3)c(-c3cccnc3)n2)c1 [CBK036835],90%
17,CS(=O)(=O)c1ccc(CNc2nccnc2-c2ccccc2F)cc1 [CBK036836],96.4%
18,OCc1cccc(-c2nccnc2NCC(O)COc2ccccc2)c1 (stereo not drawn) [CBK036842],94.3%
19,c1cc(-c2ccc(Nc3ccc(N4CCOCC4)cc3)nc2)cs1 [CBK036844],97.6%
20,C=CCNc1nccnc1-c1ccncc1 [CBK036845],90.7%
